Results reported in US20110177161A1, “PHARMACEUTICAL COMPOSITIONS OF [5(S)-(2'-HYDROXYETHOXY)-20(S)-CAMPTOTHECIN” (DR. REDDY'S LABORATORIES LIMITED, priority 2007, published 2011).
Values after ≈ are worked out from the molar mass of the structure shown. Marks after values point to notes of the source that are not given here.

Experiments:
[1] = tested on: 34 human cancer cell lines; assay: In vitro cell growth assay, Sulphorhodamine B (SRB); type: cell-based; conditions: 48 h exposure
Description: Cell proliferation was evaluated by Sulphorhodamine B (SRB) assay where the amount of dye bound to the cells after staining gives a measure of cell growth. Refer to: JNCI, vol 83, No. 11, Jun. 5, 1991, which is incorporated herein by reference.
Briefly, cells (34 human cancer cell lines represented by bladder, breast, CNS, colon, epidermoid, lung, ovarian, melanoma, prostate, renal and uterine cancers) were seeded on a 96-well cell culture plates at a concentration of 10,000 cells per well and incubated at 37 degree C. in a CO2 incubator. Twenty-four hours later, cells were treated with different concentrations of […] dissolved in DMSO to a final concentration of 0.05% in the culture medium and exposed for 48 h. Cells were fixed by adding ice-cold 50% trichloroacetic acid (TCA) and incubating for 1 h at 4° C. The plates were washed with distilled water, air dried and stained with SRB solution (0.4% wt/vol in 1% Acetic acid) for 10 min at room temperature. Unbound SRB was removed by washing thoroughly with 1% acetic acid and the plates were air-dried. The bound SRB stain was solubilized with 10 mM Tris buffer, and the optical densities were read on a spectrophotometric plate reader at a single wavelength of 515 nm. […] From the optical densities the percentage growths were calculated using the following formulae: […]

[2] = Solution stability in different alkaline solutions (HPLC impurities); type: physicochemical; parameters: C = Dimer impurity: unit not given beside the values
[3] = tested on: Human bone marrow mononuclear cells; assay: Human bone marrow assay (CFU-GM colonies); type: cell-based; conditions: GI90 for human cell toxicity to GI50 for anticancer activity
Description: Methocult.TM. GF (Cat No: H4534, Poietics, Biowhittakar, USA) medium comprising Methycellulose in iscove's MDM, Fetal bovine serum, Bovine serum albumin, 2-Mercaptoethanol, L-Glutamine, rhStem cell factor, rhGM-CSF and rhIL-3 was used for the assay. Human bone marrow mononuclear cells (Cat No. 2M-125C, Poietics, Biowhittakar, USA) were mixed with Methocult GF and the cell density was adjusted to 3×10^5 cells/ml. From this preparation, 500 μL aliquots were made and […] of 20× drug solution or vehicle was added to each aliquot and mixed thoroughly. 100 μL of clonogenic medium was plated into each well and the plates were allowed to gel at 4° C. for 15 minutes. Plates were incubated at 37 degree C. in a fully humidified atmosphere of 5% CO2 in an incubator for 14 days. CFU-GM colonies were counted under an inverted microscope as aggregates of 50 cells or more. The percentage colony inhibition was calculated using the following formula: 100−[(number of colonies in drug treated wells/Number of colonies in control wells)×100].

physchem = type: physicochemical; conditions: thermodynamic from solid
Description: Excess amounts of DRF-(5S,20S)-1042 were added to different media including water, fasting state simulated intestinal fluid (FaSIF), fed state simulated intestinal fluid (FeSIF), aqueous sodium carbonate solution (0.1M, pH12.6), aqueous sodium hydroxide solution (0.1M, pH 12.73) and the suspensions were shaken at room temperature for 24 hours at 200 rpm in a mechanical shaker water bath till no further drug went into solution when checked visually. The suspensions were filtered through a 0.22 μm membrane filter (supplied by Millipore) and the content of DRF-(5S,20S)-1042 was quantified by using the HPLC method described above.

[4] = Arginine neutralized, 24 hours RT
[5] = Meglumine neutralized, 24 hours RT

CC[C@@]1(O)C(=O)OCc2c1cc1n(c2=O)[C@@H](OCCO)c2cc3ccccc3nc2-1 [DRF-(5S,20S)-1042, 5(S)-(2′-hydroxyethoxy)-20(S)-camptothecin]
GI50 [1]: 5 µM | A = DRF (5R,20S)-1042 ([2]; Arginine as is, 24 hours RT): 5.22 | B = Decarboxylated impurity ([2]; Arginine as is, 24 hours RT): 0.19 | C = Dimer impurity ([2]; Arginine as is, 24 hours RT): 0.95 | D = Total impurities excluding DRF (5R,20S)-1042 ([2]; Arginine as is, 24 hours RT): 3.23 | A = DRF (5R,20S)-1042 ([2]; Arginine as is, Initial): 3.45 | B = Decarboxylated impurity ([2]; Arginine as is, Initial): 0.06 | C = Dimer impurity ([2]; Arginine as is, Initial): 0.88 | D = Total impurities excluding DRF (5R,20S)-1042 ([2]; Arginine as is, Initial): 2.50 | A = DRF (5R,20S)-1042 [2, 4]: 3.26 | B = Decarboxylated impurity [2, 4]: 0.18 | C = Dimer impurity [2, 4]: 0.93 | D = Total impurities excluding DRF (5R,20S)-1042 [2, 4]: 3.11 | A = DRF (5R,20S)-1042 ([2]; Arginine neutralized, Initial): 3.38 | B = Decarboxylated impurity ([2]; Arginine neutralized, Initial): 0.04 | C = Dimer impurity ([2]; Arginine neutralized, Initial): 0.9 | D = Total impurities excluding DRF (5R,20S)-1042 ([2]; Arginine neutralized, Initial): 2.64 | A = DRF (5R,20S)-1042 ([2]; Meglumine as is, 24 hours RT): 2.30 | B = Decarboxylated impurity ([2]; Meglumine as is, 24 hours RT): 0.33 | C = Dimer impurity ([2]; Meglumine as is, 24 hours RT): 7.17* | D = Total impurities excluding DRF (5R,20S)-1042 ([2]; Meglumine as is, 24 hours RT): 11.1 | A = DRF (5R,20S)-1042 ([2]; Meglumine as is, Initial): 2.77 | B = Decarboxylated impurity ([2]; Meglumine as is, Initial): 0.21 | C = Dimer impurity ([2]; Meglumine as is, Initial): 12.04 | D = Total impurities excluding DRF (5R,20S)-1042 ([2]; Meglumine as is, Initial): 21.15 | A = DRF (5R,20S)-1042 [2, 5]: 2.57 | B = Decarboxylated impurity [2, 5]: 0.33 | C = Dimer impurity [2, 5]: 1.47 | D = Total impurities excluding DRF (5R,20S)-1042 [2, 5]: 5.02 | A = DRF (5R,20S)-1042 ([2]; Meglumine neutralized, Initial): 1.05 | B = Decarboxylated impurity ([2]; Meglumine neutralized, Initial): 0.03 | C = Dimer impurity ([2]; Meglumine neutralized, Initial): 0.54 | D = Total impurities excluding DRF (5R,20S)-1042 ([2]; Meglumine neutralized, Initial): 1.49 | A = DRF (5R,20S)-1042 ([2]; NaOH as is, 24 hours RT): 101.79 | B = Decarboxylated impurity ([2]; NaOH as is, 24 hours RT): 0.02 | C = Dimer impurity ([2]; NaOH as is, 24 hours RT): 0.48 | D = Total impurities excluding DRF (5R,20S)-1042 ([2]; NaOH as is, 24 hours RT): 1.95 | A = DRF (5R,20S)-1042 ([2]; NaOH as is, Initial): 75.40 | B = Decarboxylated impurity ([2]; NaOH as is, Initial): 0.02 | C = Dimer impurity ([2]; NaOH as is, Initial): 0.35 | D = Total impurities excluding DRF (5R,20S)-1042 ([2]; NaOH as is, Initial): 1.81 | A = DRF (5R,20S)-1042 ([2]; NaOH neutralized, 24 hours RT): 56.26 | B = Decarboxylated impurity ([2]; NaOH neutralized, 24 hours RT): 0.02 | C = Dimer impurity ([2]; NaOH neutralized, 24 hours RT): 0.37 | D = Total impurities excluding DRF (5R,20S)-1042 ([2]; NaOH neutralized, 24 hours RT): 2.22 | A = DRF (5R,20S)-1042 ([2]; NaOH neutralized, Initial): 56.75 | B = Decarboxylated impurity ([2]; NaOH neutralized, Initial): 0.02 | C = Dimer impurity ([2]; NaOH neutralized, Initial): 0.38 | D = Total impurities excluding DRF (5R,20S)-1042 ([2]; NaOH neutralized, Initial): 1.81 | Safety Margin GI90/GI50 [3]: 0.14 | solubility at 24 h (physchem; fessif): ~41 µg/mL (≈ 0.1 mM) | solubility at 24 h (physchem; pH 12.6, aqueous buffer): 4160 µg/mL (≈ 10.2 mM) | solubility at 24 h (physchem; pH 12.73, aqueous buffer): 6670 µg/mL (≈ 16.3 mM)
